# According to US6861438B2, “Antiviral agents” (Pfizer, priority 2002, dated 2005):
row,melting point,Structure (SMILES)
1,295 °C (dec.),"O=C(NCc1ccc(Cl)cc1)c1cnc2ccsc2c1O [Example 1, N-(4-Chlorobenzyl)-7-hydroxythieno[3,2-b]pyridine-6-carboxamide]"
2,189 to 192 °C,"CCn1cc(C(=O)NCc2ccc(Cl)cc2)c(=O)c2sccc21 [Example 2, N-(4-Chlorobenzyl)-4-ethyl-7-oxo-4,7-dihydrothieno[3,2-b]pyridine-6-carboxamide]"
